Experimental data taken from patent US8367644B2, “Methods and compounds useful to induce apoptosis in cancer cells” (The Burnham Institute, priority 2003, dated 2013).
Like-named read-outs stand apart in the source and are kept apart here. Blank lines part the entries; values can stand above or below the molecule they belong to.

Experiments:
[1] = system: ZR75-1 cell line (low expressor of Bcl-2/Bcl-xL); test: XTT dye reduction cell viability assay, ZR75-1; details: ZR75-1, XTT; for IC50: read-out: IC50, cell viability, three days
Protocol: (§1) To evaluate the cytotoxic activity of our compounds on human tumors cells, we tested their biological activities using XTT dye reduction assays using two breast cancer cell lines: MCF7 (high expressor of Bcl-2/Bcl-xL) and ZR75-1 (low expressor of Bcl-2/Bcl-xL).
(§2) The effects of the compounds studied in this paper on viability of tumor cells in culture were monitored by using XTT (Weislow et al., J. Natl. Cancer Inst., 81:577 (1989)) assays with MCF7 and ZR75-1 cell lines. MCF7 cells were grown in DMEM containing 10% fetal bovine serum, penicillin/streptomycin, supplemented with 10^−10 M insulin, 1 mM sodium pyruvate and glutamine. ZR75-1 cells were grown in RPMI containing 10% fetal bovine serum, penicillin/streptomycin, supplemented with HEPES buffer, 1 mM sodium pyruvate and glutamine. Cells were regularly tested for mycoplasma contamination. Cells were seeded triplicates at an initial cell density of 1,000 cells per well. Blank wells received no cells. […] Relative numbers of viable cells was determined by XTT assay. Briefly, in a 96-well plate, we added 50 μl of a mixture of 1 mg/ml of XTT (Weislow et al., J. Natl. Cancer Inst., 81:577 (1989)) (2,3-bis(2-methoxy-4-nitro-5-sulfophenyl)-5-[(phenylamino)carbonyl]-2H-tetrazolium hydroxide) (Polysciences, Washington, Pa.) containing 0.025 mM PMS (phenazine methosulfate) to each well. The 96-well plates were re-incubated for an additional 4 hours to allow for XTT formazan production. Then, the contents of each plate were mixed and optical densities were determined at a wavelength of 450 nm (OD450). Net OD450 was determined after subtracting OD450 of blank wells. Low-passage HeLa cells (between passage number 10 and 20) were transfected with pcDNA3-Bcl-xL or control pcDNA3 plasmids using Lipofectamine Plus reagent (Invitrogen) and selected in medium containing 800 μg/ml of G418. Immunoblot analysis of Bcl-xL was accomplished as described (Krajanski 1996-Cancer Res) HeLa-transfectants were treated with various doses of Gossypol, Purpurogallin, and its derivatives (0, 1, 3, 10 and 100 μM).

[2] = system: MCF7 cell line (high expressor of Bcl-2/Bcl-xL); test: XTT dye reduction cell viability assay, MCF7
Protocol: as §1
The effects of the compounds studied in this paper on viability of tumor cells in culture were monitored by using XTT (Weislow et al., J. Natl. Cancer Inst., 81:577 (1989)) assays with MCF7 and ZR75-1 cell lines. MCF7 cells were grown in DMEM containing 10% fetal bovine serum, penicillin/streptomycin, supplemented with 10^−10 M insulin, 1 mM sodium pyruvate and glutamine. ZR75-1 cells were grown in RPMI containing 10% fetal bovine serum, penicillin/streptomycin, supplemented with HEPES buffer, 1 mM sodium pyruvate and glutamine. Cells were regularly tested for mycoplasma contamination. Cells were seeded triplicates at an initial cell density of 1,000 cells per well. Blank wells received no cells. […] Relative numbers of viable cells was determined by XTT assay. […] Then, the contents of each plate were mixed and optical densities were determined at a wavelength of 450 nm (OD450). Net OD450 was determined after subtracting OD450 of blank wells. […]

Bcl-xL = molecular target: T1, Bcl-xL (Homo sapiens, UniProt Q07817); test: Fluorescence polarization-based competitive binding assay (FPA) with fluorescein-labeled Bad peptide
T1 construct: made in house
T1 sequence (Q07817 whole entry): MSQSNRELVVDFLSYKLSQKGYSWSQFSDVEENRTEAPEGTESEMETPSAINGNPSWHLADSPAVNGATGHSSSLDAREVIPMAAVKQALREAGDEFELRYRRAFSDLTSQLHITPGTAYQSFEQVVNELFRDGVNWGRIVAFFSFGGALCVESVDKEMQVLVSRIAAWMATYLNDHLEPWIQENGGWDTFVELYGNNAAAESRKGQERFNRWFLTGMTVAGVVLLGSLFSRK
Protocol: FPA assays were conducted with a fluorescein-labeled Bad peptide ([sequence]-K(FITC)-FVD) (SEQ ID NO:1) (Synpep Corporation, Dublin, Calif.) using a LJL Analyst HT (Molecular Devices Co., Sunnyvale, Calif.). Dilution buffer for all stocks and samples was 50 mM Tris-Bis pH 7.4, 0.01% bovine gamma globulin. A series of two-fold dilutions of Gossypol were prepared, i.e., 100 μM, 50 μM, down to 0.1 μM in dilution buffer. To each tube was added a solution containing 30 nM of Bcl-xL and 4 nM fluoresceinated peptide. The tubes were incubated for 5 minutes at room temperature and 20 μl each of reaction mixture was transferred to 96-well black PS, HE Microplate (LJL Biosystems Co.). All assays were performed in quadruplicate, with blank wells receiving no Gossypol. Then, the plate was read for total intensity and polarization (in mP units) was measured. Controls included dose-responses measurements in absence of the proteins, to assess any interactions between the compounds and the FITC-BH3 peptide. Eventual effects were taken into account by subtraction.

[3] = previous cell-based assays; cited from earlier work
[4] = Combination of Apogossypol with fludarabine (FIG. 6, 7); assay type: cell-based
HeLa cells = HeLa cells viability assay; assay type: cell-based; details: Homo sapiens, read-out: IC50 (μM) HeLa
Protocol: as §1, §2

[5] = Table 1, green tea extracts, target Bcl-xL inferred from text and figure legends, read-out: IC50
[6] = Table 4, Purpurogallin derivatives, read-out: IC50 (μM) (Bcl-xL)
[7] = Table 2, black tea extracts, target Bcl-xL inferred from text and figure legends, read-out: IC50

Structure (SMILES): Cc1cc2c(C(C)C)c(O)c(O)c(C=O)c2c(O)c1-c1c(C)cc2c(C(C)C)c(O)c(O)c(C=O)c2c1O (racemic) [Gossypol]
IC50 [1]: 8.4 µM | IC50 ([2]; read-out: IC50, cell viability, three days): 13.2 µM

Structure (SMILES): O=C(O[C@@H]1Cc2c(O)cc(O)cc2O[C@H]1c1ccc(O)c(O)c1)c1cc(O)c(O)c(O)c1 [(−) Catechin-3-gallate (CG), (−) Catechin-3-gallate]
IC50 (Bcl-xL; [5]): 0.29 µM

Structure (SMILES): Oc1cc(O)c2c(c1)O[C@H](c1cc(O)c(O)c(O)c1)[C@H](O)C2 [(−) Epigallocatechin (EGC), (−) Epigallocatechin]
IC50 (Bcl-xL; [5]): > 100 µM

Structure (SMILES): O=C(O[C@@H]1Cc2c(O)cc(O)cc2O[C@@H]1c1cc(O)c(O)c(O)c1)c1cc(O)c(O)c(O)c1 [(−) Epigallocatechin-3-gallate (EGCG), (−) Epigallocatechin-3-gallate]
IC50 (Bcl-xL; [5]): 0.98 µM

Structure (SMILES): Oc1cc(O)c2c(c1)O[C@@H](c1cc(O)c(O)c(O)c1)[C@H](O)C2 [(−) Gallocatechin (GC), (−) Gallocatechin]
IC50 (Bcl-xL; [5]): > 100 µM

Structure (SMILES): Cc1cc2c(C(C)C)c(O)c(O)c(C=O)c2c(O)c1-c1c(C)cc2c(C(C)C)c(O)c(O)c(C=O)c2c1O [(−) Gossypol]
effectiveness as a cytotoxic agent relative to (+) Gossypol [3]: ten times more effective than (+) Gossypol

Structure (SMILES): Cc1cc2c(C(C)C)c(O)c(O)cc2c(O)c1-c1c(C)cc2c(C(C)C)c(O)c(O)cc2c1O [Apogossypol (6C1), Apogossypol]
effect in combination with fludarabine (F-ara-A) ([4]; FIG. 6): additive effect | effect in combination with F-ara-A ([4]; FIG. 7): synergistic Effect

Structure (SMILES): CCOC(=O)c1cc(O)c(=O)c2cc(O)c(O)cc2c1 [Compound 5D1]
IC50 [1]: ~50 µM | IC50 (HeLa cells; Table 4, HeLa cells viability): 51.5 µM | IC50 (Bcl-xL; [6]): 73 µM

Structure (SMILES): COc1c(O)cc2cccc(OC)c(=O)c2c1OC [Compound 6A7]
IC50 (HeLa cells; HeLa): > 100 µM | IC50 (Bcl-xL): > 100 µM

Structure (SMILES): COC(=O)c1cc(O)c(=O)c2cc(O)c(O)cc2c1 [Compound 1163]
IC50 (Bcl-xL; [6]): 2.6 µM

Structure (SMILES): O=c1c(O)cccc2c([C@H]3Oc4cc(O)cc(O)c4C[C@H]3O)cc(O)c(O)c12 [Theaflavanin]
IC50 (Bcl-xL; [7]): 0.55 µM

Further lines, with some results ahead:

IC50 (Bcl-xL; [5]): > 100 µM
Structure (SMILES): Oc1cc(O)c2c(c1)O[C@@H](c1ccc(O)c(O)c1)[C@@H](O)C2 [(+) Epicatechin (EC), (+) Epicatechin]

IC50 (Bcl-xL; [5]): > 100 µM
Structure (SMILES): Oc1cc(O)c2c(c1)O[C@@H](c1ccc(O)c(O)c1)[C@H](O)C2 [(−) Catechin (C), (−) Catechin]

IC50 (Bcl-xL; [5]): 0.24 µM
Structure (SMILES): O=C(O[C@@H]1Cc2c(O)cc(O)cc2O[C@@H]1c1ccc(O)c(O)c1)c1cc(O)c(O)c(O)c1 [(−) Epicatechin-3-gallate (ECG), (−) Epicatechin-3-gallate]

IC50 (Bcl-xL; [5]): 0.63 µM
Structure (SMILES): O=C(O[C@@H]1Cc2c(O)cc(O)cc2O[C@H]1c1cc(O)c(O)c(O)c1)c1cc(O)c(O)c(O)c1 [(−) Gallocatechin-3-gallate (GCG), (−) Gallocatechin-3-gallate]

IC50 (HeLa cells; Table 4, HeLa cells viability): > 100 µM | IC50 (Bcl-xL; [6]): > 100 µM
Structure (SMILES): COc1cc2cccc(OC)c(=O)c2c(OC)c1OC [Compound 6A1]

IC50 (HeLa cells; Table 4, HeLa cells viability): 22.9 µM | IC50 (Bcl-xL; [6]): 7.4 µM
Structure (SMILES): O=C(O)c1cc(O)c(=O)c2cc(O)c(O)cc2c1 [Compound 1142]

IC50 (HeLa cells; Table 4, HeLa cells viability): 6.5 µM
Structure (SMILES): O=c1c(O)cccc2cc(O)c(O)c(O)c12 [Purpurogallin]
cytotoxic activity [1]: did not show appreciable activity | competition for the BH3-binding pocket (Bcl-xL; FIG. 1 legend): compete for the BH3-binding pocket of Bcl-xL | cytotoxic activity [2]: did not show appreciable activity

IC50 (Bcl-xL; [7]): 0.6 µM
Structure (SMILES): O=C(O[C@H]1Cc2c(O)cc(O)cc2OC1c1cc(O)c(=O)c2c(O)c(O)cc([C@H]3Oc4cc(O)cc(O)c4C[C@H]3O)c2c1)c1cc(O)c(O)c(O)c1 (stereo partly drawn) [Theaflavin-3′-gallate]

IC50 (Bcl-xL; [7]): 1.05 µM
Structure (SMILES): O=c1c(O)cc([C@H]2Oc3cc(O)cc(O)c3C[C@H]2O)cc2c([C@H]3Oc4cc(O)cc(O)c4C[C@H]3O)cc(O)c(O)c12 [Theaflavin]
